Test results taken from patent US8629168B2, “Benzoxazoles and oxazolopyridines being useful as janus kinases inhibitors” (priority 2006, dated 2014).

Target: T1, GST-JAK2(808-1132) (Homo sapiens, UniProt O60674)
T1 construct: GST-JAK2(808-1132) is purchased from Invitrogen; purchased Invitrogen (Carlsbad, USA) #4288
Experiment: EPK JAK/TYK-kinase family profiling assay (Caliper mobility shift), JAK2
Format: biochemical
Settings: Caliper mobility shift assay of Example 187, 20 μM ATP, read-out: IC50 with Test in present Example
Excerpt: All four kinases of the JAK/TYK-kinase family are used as purified recombinant GST-fusion proteins, containing the active kinase domains. GST-JAK1(866-1154), GST-JAK3(811-1124), and GST-TYK2(888-1187) are expressed and purified by affinity chromatography. GST-JAK2(808-1132) is purchased from Invitrogen (Carlsbad, USA, #4288).
The kinase assays are based on the Caliper mobility shift assay using the LabChip 3000 systems. This technology is similar to capillary electrophoresis and uses charge driven separation of substrate and product in a microfluidic chip.
All kinase reactions are performed in 384 well microtiter plates in a total reaction volume of 18 μl. The assay plates are prepared with 0.1 μl per well of test compound in the appropriate test concentration, as described under the section “preparation of compound dilutions”. The reactions are started by combining 9 μl of substrate mix (consisting of peptide and ATP) with 9 μl of kinase dilution. The reactions are incubated for 60 minutes at 30° C. and stopped by adding 70 μl of stop buffer (100 mM Hepes, 5% DMSO, 0.1% Coating reagent, 10 mM EDTA, 0.015% Brij 35).
Fluorescently labeled synthetic peptides are used as substrates in all reactions. […] Specific assay conditions are described in Table 1:
The terminated reactions are transferred to a Caliper LabChip 3000 reader (Caliper Life Sciences, Mountain View, Calif., USA) and the turnover of each reaction is measured by determining the substrate/product ratio.
Test compounds are dissolved in DMSO (10 mM) and transferred into 1.4 mL flat bottom or V-shaped Matrix tubes carrying a unique 2D matrix chip by individual compound hubs. The numbers of these chips are distinctively linked to the individual compound identification numbers. The stock solutions are stored at −20° C. if not used immediately. For the test procedure the vials are defrosted and identified by a scanner whereby a working sheet is generated that guides the subsequent working steps.
Compound dilutions are made in 96 well plates. This format enabled the assay of maximally 40 individual test compounds at 8 concentrations (single points) including 4 reference compounds. The dilution protocol includes the production of pre-dilution plates, master plates and assay plates:
Pre-dilution plates: 96 polypropylene well plates are used as pre-dilution plates. A total of 4 pre-dilution plates are prepared including 10 test compounds each on the plate positions A1-A10, one standard compound at A11 and one DMSO control at A12. All dilution steps are done on a Hamilton STAR robot (Hamilton, Co., Reno, Nev., USA).
Master plates: 100 μL of individual compound dilutions including standard compound and controls of the 4 “pre-dilution plates” are transferred into a 384 “master plate” including the following concentrations 1,820, […], 182, 54.6, 18.2, 5.46, 1.82 and 0.546 μM, respectively in 90% of DMSO.
Assay plates: Identical assay plates are then prepared by pipetting 100 nL each of compound dilutions of the master plates into 384-well “assay plates”. In the following the compounds are mixed with 9 μL of assays components plus 9 μL enzyme corresponding to a 1:181 dilution steps enabling the final concentration of 10, 3.0, 1.0, 0.3, 0.1, 0.03, 0.01 and 0.003 μM, respectively. The preparation of the master plates are handled by the Matrix PlateMate Plus robot (Thermo Fisher Scientific, Handforth, Cheshire, United Kingdom) and replication of assay plates by the HummingBird robot (Genomic Solutions, Inc., Ann Arbor, Mich., USA).

T1 sequence (O60674 808-1132): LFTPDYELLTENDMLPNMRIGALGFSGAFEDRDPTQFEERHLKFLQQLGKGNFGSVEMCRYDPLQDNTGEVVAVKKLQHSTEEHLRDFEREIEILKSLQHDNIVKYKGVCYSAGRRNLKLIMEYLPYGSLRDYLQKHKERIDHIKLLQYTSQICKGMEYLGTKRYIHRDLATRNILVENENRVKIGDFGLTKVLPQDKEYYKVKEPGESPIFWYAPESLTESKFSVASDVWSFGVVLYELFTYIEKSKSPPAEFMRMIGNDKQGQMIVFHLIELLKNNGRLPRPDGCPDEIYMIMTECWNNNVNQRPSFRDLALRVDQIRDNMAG

## CCN1CCN(c2ccc(Nc3nc4cccc(-c5ccc(CN6CCS(=O)(=O)CC6)c(F)c5)c4o3)cc2C)CC1 [Example 88, {7-[4-(1,1-Dioxo-1lambda*6*-thiomorpholin-4-ylmethyl)-3-fluoro-phenyl]-benzooxazol-2-yl}-[4-(4-ethyl-piperazin-1-yl)-3-methyl-phenyl]-amine]
  IC50: < 3 nM

## Cc1cc(Nc2nc3cccc(-c4ccc(CN5CCOCC5)c(F)c4)c3o2)ccc1C(=O)N1CCCC1 [Example 67, {4-[7-(3-Fluoro-4-morpholin-4-ylmethyl-phenyl)-benzooxazol-2-ylamino]-2-methyl-phenyl}-pyrrolidin-1-yl-methanone]
  IC50: 14 nM

## Cc1cc(Nc2nc3cccc(-c4cc(F)c(CN5CCS(=O)(=O)CC5)c(F)c4)c3o2)ccc1N1CCOCC1 [Example 164, {7-[4-(1,1-Dioxo-1lambda*6*-thiomorpholin-4-ylmethyl)-3,5-difluoro-phenyl]-benzooxazol-2-yl}-(3-methyl-4-morpholin-4-yl-phenyl)-amine]
  IC50: 7.25 nM

## COc1cc(Nc2nc3cccc(-c4ccc(Cn5ccnc5)cc4)c3o2)cc(OC)c1OC [Example 136, [7-(4-Imidazol-1-ylmethyl-phenyl)-benzooxazol-2-yl]-(3,4,5-trimethoxy-phenyl)-amine]
  IC50: 18 nM

## CCN1CCN(c2ccc(Nc3nc4ccnc(-c5cc(F)c(CN6CCS(=O)(=O)CC6)c(F)c5)c4o3)cc2C)CC1 [Example 153, {4-[4-(1,1-Dioxo-1lambda*6*-thiomorpholin-4-ylmethyl)-3,5-difluoro-phenyl]-oxazolo[5,4-c]pyridin-2-yl}-[4-(4-ethyl-piperazin-1-yl)-3-methyl-phenyl]-amine]
  IC50: 26 nM

## Cc1cc(-c2cccc3nc(Nc4ccc(C(=O)N5CCCC5)c(C)c4)oc23)ccc1CN1CCOCC1 [Example 110, {2-Methyl-4-[7-(3-methyl-4-morpholin-4-ylmethyl-phenyl)-benzooxazol-2-ylamino]-phenyl}-pyrrolidin-1-yl-methanone]
  IC50: 88 nM

## Cc1cc(Nc2nc3cccc(-c4ccc(C(=O)N5CCS(=O)(=O)CC5)cc4)c3o2)ccc1CN1CCOCC1 [Example 165, (1,1-Dioxo-1lambda*6*-thiomorpholin-4-yl)-{4-[2-(3-methyl-4-morpholin-4-ylmethyl-phenylamino)-benzooxazol-7-yl]-phenyl}-methanone]
  IC50: 11 nM

## CN1CCN(c2ccc(Nc3nc4cccc(-c5ccc(S(N)(=O)=O)cc5)c4o3)cc2)CC1 [Example 93, 4-{2-[4-(4-Methyl-piperazin-1-yl)-phenylamino]-benzooxazol-7-yl}-benzenesulfonamide]
  IC50: 52 nM

## CC(=O)NC1Cc2ccc(Nc3nc4cccc(-c5ccc(CN6CCOCC6)c(F)c5)c4o3)cc2C1 (stereo not shown) [Example 132, N-{5-[7-(3-Fluoro-4-morpholin-4-ylmethyl-phenyl)-benzooxazol-2-ylamino]-indan-2-yl}-acetamide]
  IC50: 21 nM

## Cc1cc(Nc2nc3cccc(-c4cc(F)c(CN5CCS(=O)(=O)CC5)c(F)c4)c3o2)ccc1C(=O)N(C)C [Example 65, 4-{7-[4-(1,1-Dioxo-thiomorpholin-4-ylmethyl)-3,5-difluoro-phenyl]-benzooxazol-2-ylamino}-2,N,N-trimethyl-benzamide]
  IC50: 8.25 nM

## CCN1CCN(Cc2ccc(Nc3nc4cccc(-c5ccc(C(=O)N6CCOCC6)c(F)c5)c4o3)cc2C)CC1 [Example 119, (4-{2-[4-(4-Ethyl-piperazin-1-ylmethyl)-3-methyl-phenylamino]-benzooxazol-7-yl}-2-fluoro-phenyl)-morpholin-4-yl-methanone]
  IC50: 19.5 nM

## Cc1cc(Nc2nc3cccc(-c4ccc(CC(=O)N5CCS(=O)(=O)CC5)c(F)c4)c3o2)ccc1C(=O)N(C)C [Example 83, 4-(7-{4-[2-(1,1-Dioxo-1lambda*6*-thiomorpholin-4-yl)-2-oxo-ethyl]-3-fluoro-phenyl}-benzooxazol-2-ylamino)-2,N,N-trimethyl-benzamide]
  IC50: < 3 nM

## CCN1CCN(c2ccc(Nc3nc4cccc(-c5ccc(CN6CCOCC6)c(F)c5)c4o3)cc2C)CC1 [Example 87, [4-(4-Ethyl-piperazin-1-yl)-3-methyl-phenyl]-[7-(3-fluoro-4-morpholin-4-ylmethyl-phenyl)-benzooxazol-2-yl]-amine]
  IC50: 4.8 nM

## Cc1cc(Nc2nc3cccc(-c4ccc(S(C)(=O)=O)cc4)c3o2)ccc1N1CCN(C(C)C)CC1 [Example 105, [4-(4-Isopropyl-piperazin-1-yl)-3-methyl-phenyl]-[7-(4-methanesulfonyl-phenyl)-benzooxazol-2-yl]-amine]
  IC50: 20 nM

## CN1CCN(c2ccc(Nc3nc4cccc(-c5ccc(CC(=O)N6CCOCC6)cc5)c4o3)cc2)CC1 [Example 74, 2-(4-{2-[4-(4-Methyl-piperazin-1-yl)-phenylamino]-benzooxazol-7-yl}-phenyl)-1-morpholin-4-yl-ethanone]
  IC50: 5 nM

## CCN1CCN(C(=O)c2ccc(Nc3nc4cccc(-c5cc(F)c(CN6CCOCC6)c(F)c5)c4o3)cc2C)CC1 [Example 104, {4-[7-(3,5-Difluoro-4-morpholin-4-ylmethyl-phenyl)-benzooxazol-2-ylamino]-2-methyl-phenyl}-(4-ethyl-piperazin-1-yl)-methanone]
  IC50: 15 nM

## Cc1cc(Nc2nc3cccc(-c4cc(F)c(CN5CCOCC5)c(F)c4)c3o2)ccc1N1CCN(CCC(F)(F)F)CC1 [Example 121]
  IC50: 210 nM

## Cc1cc(Nc2nc3cccc(-c4cc(F)c(CN5CCOCC5)c(F)c4)c3o2)ccc1C(=O)N1CCCC1 [Example 99, {4-[7-(3,5-Difluoro-4-morpholin-4-ylmethyl-phenyl)-benzooxazol-2-ylamino]-2-methyl-phenyl}-pyrrolidin-1-yl-methanone]
  IC50: 19.2 nM

## Cc1cc(Nc2nc3ccnc(-c4cc(F)c(CN5CCS(=O)(=O)CC5)c(F)c4)c3o2)ccc1C(=O)N(C)C [Example 168, 4-{4-[4-(1,1-Dioxo-1lambda*6*-thiomorpholin-4-ylmethyl)-3,5-difluoro-phenyl]-oxazolo[5,4-c]pyridin-2-ylamino}-2,N,N-trimethyl-benzamide]
  IC50: 130 nM

## Cc1cc(Nc2nc3cccc(-c4ccc(C(=O)N5CCOCC5)c(F)c4)c3o2)ccc1CN1CCOCC1 [Example 131, {2-Fluoro-4-[2-(3-methyl-4-morpholin-4-ylmethyl-phenylamino)-benzooxazol-7-yl]-phenyl}-morpholin-4-yl-methanone]
  IC50: 19.5 nM

## COCCNC(=O)c1ccc(Nc2nc3cccc(-c4ccc(CC(=O)N5CCOCC5)cc4)c3o2)cc1 [Example 147, N-(2-Methoxy-ethyl)-4-{7-[4-(2-morpholin-4-yl-2-oxo-ethyl)-phenyl]-benzooxazol-2-ylamino}-benzamide]
  IC50: 28 nM

## Cc1cc(-c2cccc3nc(Nc4ccc(N5CCN(C(C)C)CC5)c(C)c4)oc23)ccc1C(=O)N1CCOCC1 [Example 106, (4-{2-[4-(4-Isopropyl-piperazin-1-yl)-3-methyl-phenylamino]-benzooxazol-7-yl}-2-methyl-phenyl)-morpholin-4-yl-methanone]
  IC50: 6.15 nM

## COc1cc(Nc2nc3cccc(-c4ccc(CO)cc4)c3o2)cc(OC)c1OC [Example 143, {4-[2-(3,4,5-Trimethoxy-phenylamino)-benzooxazol-7-yl]-phenyl}-methanol]
  IC50: 16.5 nM

## CCN1CCN(c2ccc(Nc3nc4cccc(-c5cc(F)c(C(=O)N6CCOCC6)c(F)c5)c4o3)cc2C)CC1 [Example 109, (4-{2-[4-(4-Ethyl-piperazin-1-yl)-3-methyl-phenylamino]-benzooxazol-7-yl}-2,6-difluoro-phenyl)-morpholin-4-yl-methanone]
  IC50: 11 nM

## COCCN1CCN(c2ccc(Nc3nc4cccc(-c5ccc(S(C)(=O)=O)cc5)c4o3)cc2C)CC1 [Example 115, [7-(4-Methanesulfonyl-phenyl)-benzooxazol-2-yl]-{4-[4-(2-methoxy-ethyl)-piperazin-1-yl]-3-methyl-phenyl}-amine]
  IC50: 39 nM
